According to patent US20070059632A1, “Method of manufacturing a semiconductor device” (priority 2003, published 2007):

Columns and labels:
Type in all cases: physicochemical
[1] = Solubility of compound in safety solvent; settings: safety solvent (PGMEA or EL) at 23° C.
Protocol: (1) Solubility of Compound in Safety Solvent
Each compound was tested for its solubility in safety solvent (PGMEA or EL) at 23° C. The solubility was rated as “A” when dissolved in an amount of 5% by weight or more, “B” when dissolved in an amount of 0.1% by weight or more but less than 5% by weight, and “C” when not dissolved in an amount of 0.1% by weight or more.

[2] = Inhibition of dissolution in alkali developing solution; design: key: A: no change was visually noticed in the state of film; C: the surface was roughened or a part of the film was lost because of dissolution; settings: resist film immersed in 2.38% aqueous solution of TMAH for 3 min
Protocol: (3) Inhibition of Dissolution in Alkali Developing Solution
The resist film formed in the evaluation 2 was immersed in a developing solution (2.38% aqueous solution of TMAH) for 3 min. The results were rated as “A” when no change was visually noticed in the state of film, and “C” when the surface was roughened or a part of the film was lost because of dissolution.

Alkali developability = test: Alkali developability; design: key: A: the resist film dissolved completely and disappeared; C: the resist film remained not dissolved even in a slight amount; settings: tested on the corresponding polyphenol compound A before introducing the acid-dissociating group; film immersed in 2.38% aqueous TMAH for 10 s
Protocol: (5) Alkali Developability
A polyphenol compound A corresponding to each compound before introducing the acid-dissociating functional group was examined for its developability with an alkali developing solution.
A 10% by weight solution of each polyphenol compound A in PGMEA was spin-coated using a spin coater, to form a resist film of about 0.2 μm thick. After heating on a hot plate for 3 min at 110° C., the resist film was immersed in a 2.38% aqueous solution of TMAH for 10 s. The results were rated as “A” when the resist film dissolved completely and disappeared, and “C” when the resist film remained not dissolved even in a slight amount.

Row | Structure (SMILES) | (1) Solubility in safety solvent [1] | (3) Inhibition of dissolution in developing solution [2] | (5) Alkali developability (Alkali developability)
1 | CC(C)(C)OC(=O)Cc1cc(C2(c3cc(OC(=O)OC(C)(C)C)c(OC(=O)OC(C)(C)C)c(OC(=O)OC(C)(C)C)c3)c3ccccc3-c3ccccc32)cc(OC(=O)OC(C)(C)C)c1OC(=O)OC(C)(C)C [Compound 7-3] | A (dissolved in an amount of 5% by weight or more) | A | A
2 | Oc1ccc(C2(c3ccc(OC4CCCCO4)cc3)c3ccccc3-c3ccccc32)cc1 (stereo not drawn) [Compound 7-4] | A (dissolved in an amount of 5% by weight or more) | A | A
3 | O=C1c2ccccc2C(c2ccc(O)cc2)(c2ccc(OC3CCCCO3)cc2)c2ccccc21 (stereo not drawn) [Compound 7-5] | A (dissolved in an amount of 5% by weight or more) | A | A
4 | Oc1ccc(C2(c3ccc(OC4CCCCO4)cc3)Cc3cccc4cccc2c34)cc1 (stereo not drawn) [Compound 8-1] | A (dissolved in an amount of 5% by weight or more) | A | A
5 | O=C1c2cccc3cccc(c23)C1(c1ccc(O)cc1)c1ccc(OC2CCCCO2)cc1 (stereo not drawn) [Compound 8-2] | A (dissolved in an amount of 5% by weight or more) | A | A
6 | CCOC(C)Oc1ccc(C2(c3ccc(O)c(C4CCCCC4)c3)Cc3cccc4cccc2c34)cc1C1CCCCC1 (stereo not drawn) [Compound 8-3] | A (dissolved in an amount of 5% by weight or more) | A | A
7 | CC(C)(C)OC(=O)Oc1ccc(C2(c3ccc(OC(=O)OC(C)(C)C)cc3)C(=O)c3cccc4cccc2c34)cc1 [Compound 8-4] | A (dissolved in an amount of 5% by weight or more) | A | A
8 | CCOC(C)Oc1ccc(C2(c3ccc(O)c(-c4ccccc4)c3)Cc3cccc4cccc2c34)cc1-c1ccccc1 (stereo not drawn) [Compound 8-5] | A (dissolved in an amount of 5% by weight or more) | A | A
9 | CC1(c2ccc3ccccc3c2)c2ccc(O)cc2Oc2cc(OC3CCCCC3)ccc21 (stereo not drawn) [Compound 9-1] | A (dissolved in an amount of 5% by weight or more) | A | A
10 | CCCCOC(=O)Oc1ccc2c(c1)Oc1cc(OC(=O)OCCCC)ccc1C2c1ccc(-c2ccccc2)cc1 [Compound 10-1] | A (dissolved in an amount of 5% by weight or more) | A | A
11 | Oc1ccc2c(c1)Oc1cc(OC3CCCCO3)ccc1C2c1ccc(-c2ccccc2)cc1 (stereo not drawn) [Compound 10-2] | A (dissolved in an amount of 5% by weight or more) | A | A
12 | CC(C)(C)OC(=O)Oc1ccc2c(c1)Oc1cc(O)ccc1C21c2ccccc2-c2ccccc21 [Compound 11-1] | A (dissolved in an amount of 5% by weight or more) | A | A
13 | CC(C)(C)OC(=O)Oc1ccc2c(c1)Oc1cc(OC(=O)OC(C)(C)C)ccc1C21c2ccccc2-c2ccccc21 [Compound 11-2] | B (dissolved in an amount of 0.1% by weight or more but less than 5% by weight) | A | A
14 | CCOC(C)Oc1ccc2c(c1)Oc1cc(O)ccc1C21c2ccccc2-c2ccccc21 (stereo not drawn) [Compound 11-3] | A (dissolved in an amount of 5% by weight or more) | A | A
15 | CCOC(C)Oc1ccc2c(c1)Oc1cc(O)ccc1C21Cc2cccc3cccc1c23 (stereo not drawn) [Compound 12-1] | A (dissolved in an amount of 5% by weight or more) | A | A
16 | CC(C)(C)OC(=O)Oc1ccc(C(c2ccc(OC(=O)OC(C)(C)C)cc2)c2ccc(OC(=O)OC(C)(C)C)cc2)cc1 [Compound 14-3, reference compound] | A (dissolved in an amount of 5% by weight or more) | A | A
17 | CC(C)(C)OC(=O)Oc1ccc(-c2cc(-c3ccc(OC(=O)OC(C)(C)C)cc3)cc(-c3ccc(OC(=O)OC(C)(C)C)cc3)c2)cc1 [Compound 14-4, reference compound] | A (dissolved in an amount of 5% by weight or more) | A | A
18 | Cc1cc(C(C)(c2ccc(O)c(C)c2)c2ccc3ccccc3c2)ccc1O [Compound 14-5, 1-(2-naphthyl)-1,1-bis(3-methyl-4-hydroxyphenyl)ethane, reference compound] | A (dissolved in an amount of 5% by weight or more) | C | A
